Test: Metabolic stability in the presence of human hepatic microsomes
Format: in vitro ADME
Details: compound 1 μM (DMSO 0.1%), microsomal protein 0.5 mg/mL, LC/MS/MS
Protocol: This is illustrated more particularly by the test of metabolic stability in the presence of human hepatic microsomes presented below.
Human hepatic microsomes (Becton Dickinson) are incubated at a protein concentration of 0.5 mg/mL in the reaction mixture.
The reaction mixture of the microsomes consists of phosphate buffer pH: 7.4 at 100 mM, MgCl2 at 100 mM (50/50), a system for generating […] consisting of a mixture of nicotinamide adenine […] (NADP), glucose-6-phosphate (G6P) at 1 mg/mL and glucose-6-phosphate dehydrogenase (G6PDH) at 4 U/mL. The compounds are tested at 1 μM (DMSO 0.1%).
The samples are taken from the incubation medium after adding the microsomes, at time 15 minutes. The metabolic reaction is stopped by adding methanol (1 volume incubation medium/3 volumes of methanol). The percentage of the parent product remaining after 15 minutes is measured by LC/MS/MS analysis.

Compound | % of product remaining at 15 min (human hepatic microsomes) [%]
COc1c(C)cccc1-c1cn(CC(=O)N2CCC(N3CCc4ccccc4NC3=O)CC2)c(=O)n(C)c1=O [Compound 25, 5-(2-methoxy-3-methylphenyl)-3-methyl-1-{2-oxo-2-[4-(2-oxo-1,2,4,5-tetrahydro-benzo[d][1,3]diazepin-3-yl)-piperidin-1-yl]-ethyl}-1H-pyrimidine-2,4-dione] | 8
Cc1cccc(-c2cn(CC(=O)N3CCC(N4CCc5ccccc5NC4=O)CC3)c(=O)n(C)c2=O)c1C [Compound 30, 5-(2,3-dimethylphenyl)-3-methyl-1-{2-oxo-2-[4-(2-oxo-1,2,4,5-tetrahydro-benzo[d][1,3]diazepin-3-yl)-piperidin-1-yl]-ethyl}-1H-pyrimidine-2,4-dione] | 16
COC[C@@H](C)n1c(=O)c(-c2cccc(F)c2Cl)cn(CC(=O)N2CCC(N3CCc4ccccc4NC3=O)CC2)c1=O [Compound 110, 5-(2-chloro-3-fluorophenyl)-3-((R)-2-methoxy-1-methylethyl)-1-{2-oxo-2-[4-(2-oxo-1,2,4,5-tetrahydro-benzo[d][1,3]diazepin-3-yl)-piperidin-1-yl]-ethyl}-1H-pyrimidine-2,4-dione] | 1
CSCCn1c(=O)c(-c2cccc(F)c2Cl)cn(CC(=O)N2CCC(N3CCc4ccccc4NC3=O)CC2)c1=O [Compound 112, 5-(2-chloro-3-fluorophenyl)-3-(2-methylsulphanyl-ethyl)-1-{2-oxo-2-[4-(2-oxo-1,2,4,5-tetrahydro-benzo[d][1,3]diazepin-3-yl)-piperidin-1-yl]-ethyl}-1H-pyrimidine-2,4-dione] | 0
COC(=O)CCn1c(=O)c(-c2cccc(F)c2Cl)cn(CC(=O)N2CCC(N3CCc4ccccc4NC3=O)CC2)c1=O [Compound 114, 3-(5-(2-chloro-3-fluorophenyl)-2,6-dioxo-3-{2-oxo-2-[4-(2-oxo-1,2,4,5-tetrahydro-benzo[d][1,3]diazepin-3-yl)-piperidin-1-yl]-ethyl}-3,6-dihydro-2H-pyrimidin-1-yl)-methyl propionate] | 41
COC[C@H](C)n1c(=O)c(-c2cccc(F)c2Cl)cn(CC(=O)Nc2ccc3c(c2)C[C@@]2(C3)C(=O)Nc3ncccc32)c1=O [Compound 165] | 0
COc1cccc(C2=CN(CC(=O)N3CCC(N4CCc5ccccc5NC4=O)CC3)C(=O)N(C(C)C)C2)c1Cl [Compound 193, 3-(1-{2-[5-(2-chloro-3-methoxyphenyl)-3-isopropyl-2-oxo-3,4-dihydro-2H-pyrimidin-1-yl]-acetyl}-piperidin-4-yl)-1,3,4,5-tetrahydro-benzo[d][1,3]diazepin-2-one] | 18
COc1ccc2c(c1)CCN(C1CCN(C(=O)Cn3cc(-c4cccc(F)c4Cl)c(=O)n(CCn4cnnc4)c3=O)CC1)C(=O)N2 [Compound 251, 5-(2-chloro-3-fluorophenyl)-1-[2-[4-(7-methoxy-2-oxo-4,5-dihydro-1H-1,3-benzodiazepin-3-yl)-1-piperidyl]-2-oxo-ethyl]-3-[2-(1,2,4-triazol-4-yl)ethyl]pyrimidine-2,4-dione] | 4
O=C(CN1C(=O)C2(CCCC2)NC[C@H]1c1cc(F)cc(F)c1)Nc1ccc2c(c1)C[C@@]1(C2)C(=O)Nc2ncccc21 [MK-3207, reference compound] | 100
NCCCC[C@H](NC(=O)[C@@H](Cc1cc(Br)c(O)c(Br)c1)NC(=O)N1CCC(N2Cc3ccccc3NC2=O)CC1)C(=O)N1CCN(c2ccncc2)CC1 [Olcegepant, olcegepant, reference compound] | 100
O=C(N[C@@H]1CC[C@@H](c2cccc(F)c2F)CN(CC(F)(F)F)C1=O)N1CCC(n2c(=O)[nH]c3ncccc32)CC1 [Telcagepant, telcagepant, reference compound] | 100

The next lines start with the values.

% of product remaining at 15 min (human hepatic microsomes) [%] | Compound
45 | CC(C)n1c(=O)c(-c2cccc(F)c2Cl)cn(CC(=O)N2CCC(N3CCc4ccccc4NC3=O)CC2)c1=O [Compound 63, 5-(2-chloro-3-fluorophenyl)-3-isopropyl-1-{2-oxo-2-[4-(2-oxo-1,2,4,5-tetrahydro-benzo[d][1,3]diazepin-3-yl)-piperidin-1-yl]-ethyl}-1H-pyrimidine-2,4-dione]
0 | COc1ccc2c(c1)CCN(C1CCN(C(=O)Cn3cc(-c4cccc(F)c4Cl)c(=O)n([C@@H](C)CNC(C)=O)c3=O)CC1)C(=O)N2 [Compound 115, N—[(S)-2-(5-(2-chloro-3-fluorophenyl)-3-{2-[4-(7-methoxy-2-oxo-1,2,4,5-tetrahydro-benzo[d][1,3]diazepin-3-yl)-piperidin-1-yl]-2-oxo-ethyl}-2,6-dioxo-3,6-dihydro-2H-pyrimidin-1-yl)-propyl]acetamide]
1 | COc1ccc2c(c1)CCN(C1CCN(C(=O)Cn3cc(-c4cccc(F)c4Cl)c(=O)n([C@@H](C)CNS(C)(=O)=O)c3=O)CC1)C(=O)N2 [Compound 120, N—[(S)-2-(5-(2-chloro-3-fluorophenyl)-3-{2-[4-(7-methoxy-2-oxo-1,2,4,5-tetrahydro-benzo[d][1,3]diazepin-3-yl)-piperidin-1-yl]-2-oxo-ethyl}-2,6-dioxo-3,6-dihydro-2H-pyrimidin-1-yl)-propyl]-methanesulphonamide]
65 | COc1ccc2c(c1)CCN(C1CCN(C(=O)Cn3cc(-c4cccc(F)c4Cl)c(=O)n([C@@H](C)CS(C)(=O)=O)c3=O)CC1)C(=O)N2 [Compound 142, 5-(2-chloro-3-fluorophenyl)-3-((S)-2-methanesulphonyl-1-methylethyl)-1-{2-[4-(7-methoxy-2-oxo-1,2,4,5-tetrahydro-benzo[d][1,3]diazepin-3-yl)-piperidin-1-yl]-2-oxo-ethyl}-1H-pyrimidine-2,4-dione]
42 | COc1ccc2c(c1)CCN(C1CCN(C(=O)Cn3cc(-c4cccc(F)c4Cl)c(=O)n([C@H](C)CS(C)(=O)=O)c3=O)CC1)C(=O)N2 [Compound 143, 5-(2-chloro-3-fluorophenyl)-3-((R)-2-methanesulphonyl-1-methylethyl)-1-{2-[4-(7-methoxy-2-oxo-1,2,4,5-tetrahydro-benzo[d][1,3]diazepin-3-yl)-piperidin-1-yl]-2-oxo-ethyl}-1H-pyrimidine-2,4-dione]
26 | COc1ccc2c(c1)CCN(C1CCN(C(=O)Cn3cc(-c4cccc(OC)c4F)c(=O)n(C(C)C)c3=O)CC1)C(=O)N2 [Compound 149, 5-(2-fluoro-3-methoxyphenyl)-3-isopropyl-1-{2-[4-(7-methoxy-2-oxo-1,2,4,5-tetrahydro-benzo[d][1,3]diazepin-3-yl)-piperidin-1-yl]-2-oxo-ethyl}-1H-pyrimidine-2,4-dione]
0 | COc1ccc2c(c1)CCN(C1CCN(C(=O)Cn3cc(-c4ccccc4OC(F)(F)F)c(=O)n(C(C)C)c3=O)CC1)C(=O)N2 [Compound 150, 3-isopropyl-1-{2-[4-(7-methoxy-2-oxo-1,2,4,5-tetrahydro-benzo[d][1,3]diazepin-3-yl)-piperidin-1-yl]-2-oxo-ethyl}-5-(2-trifluoromethoxyphenyl)-1H-pyrimidine-2,4-dione]
0 | CCC(=O)NC[C@H](C)n1c(=O)c(-c2cccc(F)c2Cl)cn(CC(=O)N2CCC(N3CCc4cc(OC)ccc4NC3=O)CC2)c1=O [Compound 158, N—[(S)-2-(5-(2-chloro-3-fluorophenyl)-3-{2-[4-(7-methoxy-2-oxo-1,2,4,5-tetrahydro-benzo[d][1,3]diazepin-3-yl)-piperidin-1-yl]-2-oxo-ethyl}-2,6-dioxo-3,6-dihydro-2H-pyrimidin-1-yl)-propyl]-propionamide]
1 | COc1ccc2c(c1)CCN(C1CCN(C(=O)Cn3cc(-c4cccc(OC)c4Cl)c(=O)n([C@@H](C)CNC(C)=O)c3=O)CC1)C(=O)N2 [Compound 206, N—[(S)-2-(5-(2-chloro-3-methoxyphenyl)-3-{2-[4-(7-methoxy-2-oxo-1,2,4,5-tetrahydro-benzo[d][1,3]diazepin-3-yl)-piperidin-1-yl]-2-oxo-ethyl}-2,6-dioxo-3,6-dihydro-2H-pyrimidin-1-yl)-propyl]acetamide]
1 | COCC(COC)n1c(=O)c(-c2cccc(F)c2Cl)cn(CC(=O)N2CCC(N3CCc4cc(OC)ccc4NC3=O)CC2)c1=O [Compound 232, 5-(2-chloro-3-fluorophenyl)-3-[2-methoxy-1-(methoxymethyl)ethyl]-1-[2-[4-(7-methoxy-2-oxo-4,5-dihydro-1H-1,3-benzodiazepin-3-yl)-1-piperidyl]-2-oxo-ethyl]pyrimidine-2,4-dione]
3 | CC[C@H](C)n1c(=O)c(-c2cccc(F)c2Cl)cn(CC(=O)N2CCC(N3CCc4cc(OC)ccc4NC3=O)CC2)c1=O [Compound 237, 5-(2-chloro-3-fluorophenyl)-1-[2-[4-(7-methoxy-2-oxo-4,5-dihydro-1H-1,3-benzodiazepin-3-yl)-1-piperidyl]-2-oxo-ethyl]-3-[(1S)-1-methylpropyl]pyrimidine-2,4-dione]
0 | COc1ccc2c(c1)CCN(C1CCN(C(=O)Cn3cc(-c4cccc(F)c4Cl)c(=O)n(CC(C)(C)OC)c3=O)CC1)C(=O)N2 [Compound 240, 5-(2-chloro-3-fluorophenyl)-3-(2-methoxy-2-methylpropyl)-1-[2-[4-(7-methoxy-2-oxo-4,5-dihydro-1H-1,3-benzodiazepin-3-yl)-1-piperidyl]-2-oxo-ethyl]pyrimidine-2,4-dione]

Reference: patent US10246422B2, “Heterocyclic compounds and use thereof in medicine and in cosmetics” (GALDERMA RESEARCH & DEVELOPMENT, priority 2014, dated 2019)
